Read-outs that look alike come from different tables or passages of the source.
What was measured:
[1] = system: WM983B melanoma cells; experiment: Cell viability assay (EZQuant), WM983B; type: cell-based; conditions: Homo sapiens, AP alone, 72 h
Experimental: (§2) Cell proliferation assays were conducted in 96-well plates at 25-30% starting confluence to determine the effect of exposure to increasing concentrations of PLX4720 or AP with or without 1 mM DFMO for 72 hours. Cell viability was assessed using the EZQuant™ Cell Quantifying Kit (Alstem) in which WST-8 is reduced by the metabolic activity of live cells to formazan dye. […] The 72 hour IC50 values for AP were calculated using non-linear regression (sigmoidal dose response) of the plot of percentage inhibition versus the log of inhibitor concentration in GraphPad Prism (v5; GraphPad Software, Inc., La Jolla, Calif.).

[2] = system: WM989 melanoma cells; experiment: Cell viability assay (EZQuant), WM989; type: cell-based; conditions: Homo sapiens; AP alone, 72 h, WM989, BRAF V600E
Experimental: as §2

[3] = system: WM3743 melanoma cells; experiment: Cell viability assay (EZQuant), WM3743; type: cell-based; conditions: Homo sapiens; AP alone, 72 h, WM3743, BRAF WT
Experimental: as §2

[4] = system: polyamine transport system (PTS); experiment: Radiolabeled spermidine transport assay, human melanoma cell lines; type: cell-based; conditions: ± SD
Experimental: Polyamine transport in tumor cells was evaluated essentially as described (Kramer, et al. (1993) J. Cell Physiol., 155(2):399-407; Nilsson, et al. (2005) Cancer Cell 7(5):433-444). Radioactive spermidine (Net-522 Spermidine Trihydrochloride, [Terminal Methylenes-^3H(n)]) from Perkin Elmer was used (specific activity: 16.6 Ci/mmol). Cells were plated in 96 well plates and grown to approximately 80% confluence. Half of the cells were treated with 1 mM DFMO for 40 hours. After repeated washing with PBS, ^3H-spermidine was added at 1 μM and incubated for 60 minutes at 37° C. Cells were then washed with cold PBS containing 50 μM spermidine and lysed in 0.1% SDS at 37° C. for 30 minutes with mixing. Cell lysates were then aliquoted for scintillation counting and for protein assay using a mini-BioRad assay. Results were expressed as CPM/g protein.

[5] = system: BRAF^WT melanoma cells; experiment: Cell viability, panel of BRAF WT human melanoma cell lines; type: cell-based; conditions: summary of Table 1, BRAF WT lines, read-out: IC50 (sensitivity to AP)
Source text: A panel of human melanoma cell lines with different BRAF mutational status were screened for their sensitivity to the BRAF inhibitor PLX4720. […] The IC50 value is defined as the concentration of the compound (PLX4720) required to inhibit 50% cell viability compared to an untreated control. This approach allowed for the ranking of the relative sensitivity of each cell line to the PLX4720 BRAF inhibitor. Thus, the sensitivity of these BRAF^V600E melanoma cells to BRAF inhibition with PLX4720 reflected their functional dependence on mutant BRAF signaling to sustain their proliferation and viability. Likewise, it was tested whether BRAF^V600E cells were more sensitive compared to BRAF^WT melanoma cells to increasing concentrations of the cytotoxic polyamine transport ligand, AP.

[6] = system: B16F10-BRAF^V600E cells; experiment: Cell viability assay, B16F10-BRAF V600E; conditions: Mus musculus, read-out: IC50 (cytotoxicity)
Experimental: Cell proliferation assays were conducted in 96-well plates at 25-30% starting confluence to determine the effect of exposure to increasing concentrations of PLX4720 or AP with or without 1 mM DFMO for 72 hours. Cell viability was assessed using the EZQuant™ Cell Quantifying Kit (Alstem) in which WST-8 is reduced by the metabolic activity of live cells to formazan dye. For spheroids treated with PLX4720 and/or AP, viability of the spheroid cells was estimated by quantification of the ATP present using a CellTiter-Glo Luminescent Cell Viability Assay (Promega Co., Madison, Wis.). The 72 hour IC50 values for AP were calculated using non-linear regression (sigmoidal dose response) of the plot of percentage inhibition versus the log of inhibitor concentration in GraphPad Prism (v5; GraphPad Software, Inc., La Jolla, Calif.).

[7] = system: 1205Lu melanoma spheroids; experiment: 3D spheroid culture viability (CellTiter-Glo); type: cell-based, human; conditions: FIG. 10, 25 μM each drug, 48 h, 3D spheroids on NCPs
Experimental: (§1) BRAF^V600E mutant 1205Lu melanoma cells were seeded at 1×10^4 cells in each well of the […] NCPs. When spheroids were formed on day 3, the 3D cultures of spheroids were treated with PLX4720 (25 μM) and/or AP (25 μM). 2D monolayer cultures of 1205Lu melanoma cells were also treated with PLX4720 (25 μM) and/or AP (25 μM). After drug treatment for 48 hours, the viability of spheroids and monolayer cultures was assayed using the CellTiter-Glo Luminescent Cell Viability Assay. The percent cell survival in each treatment group was calculated relative to cells treated with medium only under the same conditions. As controls, the growth of cells without drug treatment under each condition was normalized as 100% separately. The means are presented±SD.
The inorganic nanoscale scaffolding NanoCulture plates (NCP) were purchased from SCIVAX. The base of each NCP is constructed with a transparent cyclo-olefin resinous sheet with a nanoscale indented pattern. To form spheroids, 1205Lu human melanoma cells were seeded in 96-well NCPs at 1×10^4 cells/well in MCDB153 (Sigma)/Leibovitz's L-15 (Cellgro) medium (4:1 ratio) supplemented with 2% heat-inactivated fetal calf serum and 2 mM CaCl2 and incubated in a conventional cell incubator at 37° C. in an atmosphere of 5% CO2 and normal O2 levels. […]

[8] = system: 1205Lu melanoma monolayer cultures; experiment: 2D monolayer culture viability (CellTiter-Glo); type: cell-based, human; conditions: FIG. 10, 25 μM each drug, 48 h
Experimental: as §1

[9] = system: BRAF-mutant melanoma tumor; experiment: BRAF-mutant melanoma tumor in mice treated with PLX4720; type: in vivo; conditions: FIG. 11, co-treatment with PLX4720, begun when the tumor has regressed
Experimental: FIG. 11 provides a graph of tumor volume in mice over time after treatment with PLX4720 alone or PLX4720 with delayed administration of AP and DFMO.
In addition to the above, the efficacy of AP in vivo was also tested.

[10] = system: CXCR4^+ RAW247.6 macrophage cells; experiment: In vitro chemotaxis assay, SDF-1 stimulated migration; type: cell-based
Experimental: The ability to inhibit stromal cell-derived factor 1 (SDF-1) stimulated migration of macrophage was also tested in an in vitro chemotaxis assay. Specifically, CXCR4^+ RAW247.6 macrophage cells were treated with SDF-1α alone or with AMD3100, a specific CXCR4 antagonist which inhibits cell migration and phosphorylation of ERK1/2 by SDF-1, or AP (Formula (II)).

CNCNCNCc1ccc(CNCNCNC)c2ccccc12 [AP]
IC50 ([1]; BRAF V600E, read-out: IC50 (μM AP)): 2.6 µM | IC50 ([1]; FIG. 8C, read-out: IC50): 2.3 µM | IC50 [2]: 1.2 µM | IC50 [3]: 8.9 µM | PTS Activity (cpm ^3H Spd/μg Protein) ([4]; 1205Lu, column group AP (without DFMO)): 230 ± 22 cpm ^3H Spd/μg Protein | PTS Activity (cpm ^3H Spd/μg Protein) ([4]; WM88, column group AP (without DFMO)): 302 ± 18 cpm ^3H Spd/μg Protein | PTS Activity (cpm ^3H Spd/μg Protein) ([4]; WM983B, column group AP (without DFMO)): 487 ± 64 cpm ^3H Spd/μg Protein | PTS Activity (cpm ^3H Spd/μg Protein) ([4]; WM989, column group AP (without DFMO)): 304 ± 28 cpm ^3H Spd/μg Protein | PTS Activity (cpm ^3H Spd/μg Protein) ([4]; WM3211, column group AP (without DFMO)): 278 ± 58 cpm ^3H Spd/μg Protein | PTS Activity (cpm ^3H Spd/μg Protein) ([4]; WM3451, column group AP (without DFMO)): 130 ± 21 cpm ^3H Spd/μg Protein | PTS Activity (cpm ^3H Spd/μg Protein) ([4]; WM3734, column group AP (without DFMO)): 444 ± 46 cpm ^3H Spd/μg Protein | PTS Activity (cpm ^3H Spd/μg Protein) ([4]; WM3743, column group AP (without DFMO)): 117 ± 23 cpm ^3H Spd/μg Protein | IC50 [5]: > 4000 nM | IC50 [6]: 24400 nM | cell viability of spheroid cultures [7]: similarly sensitive | cell viability of monolayer cultures [8]: similarly sensitive | regrowth of BRAF inhibitor-resistant tumor [9]: significantly retards the regrowth | SDF-1-stimulated migration of CXCR4+ macrophages ([10]; FIG. 13): inhibits | viability of the macrophages ([10]; in the chemotaxis assay): without affecting the viability

— patent US20190365673A1, “Immunomodulatory Compounds” (Lankenau Institute for Medical Research, priority 2016, published 2019)
